Activity calls are given as the source filed them. The calls are words filed in the database; no cut-off is given here.
Assays:
Schistocerca americana [1] = experiment: Antifeedant activity against Schistocerca americana in compound treated Citrus paradisi MacFad (Rutaceae) potted plants assessed as area consumed from leaf disk measured under different 4 hr sunlight exposure at 18 g/l by No-choice tests; format: functional, organism-based
Diaprepes abbreviatus [2] = experiment: Antifeedant activity against Diaprepes abbreviatus in compound treated healthy romaine lettuce plants assessed as area consumed from leaf disk at 5.6 ml/l by choice tests (1.45 +/- 0.1 cm'2); format: functional
Schistocerca americana [3] = experiment: Antifeedant activity against Schistocerca americana in compound treated Citrus paradisi MacFad (Rutaceae) potted plants assessed as area consumed from leaf disk measured under different 8 hr sunlight exposure at 18 g/l by No-choice tests; format: functional, organism-based
Schistocerca americana [4] = experiment: Antifeedant activity against Schistocerca americana in compound treated Citrus paradisi MacFad (Rutaceae) potted plants assessed as area consumed from leaf disk measured under 8 hr sunlight exposure at 5.6 ml/l by No-choice tests; format: functional, organism-based
Schistocerca americana [5] = experiment: Antifeedant activity against Schistocerca americana in compound treated Citrus paradisi MacFad (Rutaceae) potted plants assessed as area consumed from leaf disk measured under 4 hr sunlight exposure at 5.6 ml/l by No-choice tests; format: functional, organism-based
Diaprepes abbreviatus [6] = experiment: Antifeedant activity against Diaprepes abbreviatus in compound treated healthy romaine lettuce plants assessed as area consumed from leaf disk at 5.6 ml/l by No-choice tests (1.40 +/- 0.1 cm'2); format: functional
Schistocerca americana [7] = experiment: Antifeedant activity against Schistocerca americana in compound treated healthy romaine lettuce plants assessed as area consumed from leaf disk at 5.6 ml/l by No-choice tests (3.10 +/- 0.1 cm'2); format: functional
Schistocerca americana [8] = experiment: Antifeedant activity against Schistocerca americana in compound treated healthy romaine lettuce plants assessed as area consumed from leaf disk at 5.6 ml/l by choice tests (2.62 +/- 0.1 cm'2); format: functional
Schistocerca americana [9] = experiment: Antifeedant activity against Schistocerca americana in compound treated Citrus paradisi MacFad (Rutaceae) potted plants assessed as area consumed from leaf disk measured under different 12 hr sunlight exposure at 18 g/l by No-choice tests; format: functional, organism-based
Schistocerca americana [10] = experiment: Antifeedant activity against Schistocerca americana in compound treated Citrus paradisi MacFad (Rutaceae) potted plants assessed as area consumed from leaf disk measured under 4 hr sunlight exposure at 18 g/l by No-choice tests; format: functional, organism-based
Schistocerca americana [11] = experiment: Antifeedant activity against Schistocerca americana in compound treated Citrus paradisi MacFad (Rutaceae) potted plants assessed as area consumed from leaf disk measured under 8 hr sunlight exposure at 18 g/l by No-choice tests; format: functional, organism-based
Schistocerca americana [12] = experiment: Antifeedant activity against Schistocerca americana in compound treated healthy romaine lettuce plants assessed as area consumed from leaf disk at 31.3 ml/l by choice tests (1.79 +/- 0.2 cm'2); format: functional
Diaprepes abbreviatus [13] = experiment: Antifeedant activity against Diaprepes abbreviatus in compound treated healthy romaine lettuce plants assessed as area consumed from leaf disk at 31.3 ml/l by choice tests (1.39 +/- 0.1 cm'2); format: functional
Diaprepes abbreviatus [14] = experiment: Antifeedant activity against Diaprepes abbreviatus in compound treated Citrus paradisi MacFad (Rutaceae) potted plants assessed as reduction in leaf consumption measured under 12 hr sunlight exposure at 5.6 ml/l by No-choice tests; format: functional, organism-based
Diaprepes abbreviatus [15] = experiment: Antifeedant activity against Diaprepes abbreviatus in compound treated healthy romaine lettuce plants assessed as area consumed from leaf disk at 48 g/l by No-choice tests (2.51 +/- 0.2 cm'2); format: functional
Diaprepes abbreviatus [16] = experiment: Antifeedant activity against Diaprepes abbreviatus in compound treated healthy romaine lettuce plants assessed as area consumed from leaf disk at 48 g/l by choice tests (1.47 +/- 0.1 cm'2); format: functional
Schistocerca americana [17] = experiment: Antifeedant activity against Schistocerca americana in compound treated healthy romaine lettuce plants assessed as area consumed from leaf disk at 48 g/l by choice tests (1.88 +/- 0.2 cm'2); format: functional
Diaprepes abbreviatus [18] = experiment: Antifeedant activity against Diaprepes abbreviatus in compound treated Citrus paradisi MacFad (Rutaceae) potted plants assessed as reduction in leaf consumption measured under 4 hr sunlight exposure at 5.6 ml/l by No-choice tests; format: functional, organism-based
Diaprepes abbreviatus [19] = experiment: Antifeedant activity against Diaprepes abbreviatus in compound treated Citrus paradisi MacFad (Rutaceae) potted plants assessed as reduction in leaf consumption measured under 8 hr sunlight exposure at 5.6 ml/l by No-choice tests; format: functional, organism-based
Diaprepes abbreviatus [20] = experiment: Antifeedant activity against Diaprepes abbreviatus in compound treated healthy romaine lettuce plants assessed as area consumed from leaf disk at 18 g/l by No-choice tests (2.48 +/- 0.1 cm'2); format: functional
Schistocerca americana [21] = experiment: Antifeedant activity against Schistocerca americana in compound treated healthy romaine lettuce plants assessed as area consumed from leaf disk at 18 g/l by No-choice tests (3.14 +/- 0.1 cm'2); format: functional
Diaprepes abbreviatus [22] = experiment: Antifeedant activity against Diaprepes abbreviatus in compound treated healthy romaine lettuce plants assessed as area consumed from leaf disk at 18 g/l by choice tests (1.19 +/- 0.1 cm'2); format: functional
Schistocerca americana [23] = experiment: Antifeedant activity against Schistocerca americana in compound treated healthy romaine lettuce plants assessed as area consumed from leaf disk at 18 g/l by choice tests (2.28 +/- 0.1 cm'2); format: functional
Diaprepes abbreviatus [24] = experiment: Antifeedant activity against Diaprepes abbreviatus in compound treated Citrus paradisi MacFad (Rutaceae) potted plants assessed as reduction in leaf consumption measured under 12 hr sunlight exposure at 18 g/l by No-choice tests; format: functional, organism-based
Diaprepes abbreviatus [25] = experiment: Antifeedant activity against Diaprepes abbreviatus in compound treated Citrus paradisi MacFad (Rutaceae) potted plants assessed as reduction in leaf consumption measured under 4 hr sunlight exposure at 18 g/l by No-choice tests; format: functional, organism-based
Diaprepes abbreviatus [26] = experiment: Antifeedant activity against Diaprepes abbreviatus in compound treated Citrus paradisi MacFad (Rutaceae) potted plants assessed as reduction in leaf consumption measured under 8 hr sunlight exposure at 18 g/l by No-choice tests; format: functional, organism-based

With `C/C=C(\C)C(=O)O[C@H]1C[C@@H](OC(C)=O)[C@@]2(C(=O)OC)CO[C@H]3[C@@H](O)[C@@](C)([C@]45O[C@@]4(C)[C@@H]4C[C@H]5O[C@@H]5OC=C[C@@]54O)[C@H]4[C@]1(CO[C@]4(O)C(=O)OC)[C@@H]32` [AZADIRACHTIN A] the Activity (Schistocerca americana [1]) was “inactive”, the Activity (Diaprepes abbreviatus [2]) was 0.74 cm2 and the Activity (Schistocerca americana [3]) was “inactive”. The Activity (Schistocerca americana [4]) was “Active”, the Activity (Schistocerca americana [5]) was “inactive” and the Activity (Diaprepes abbreviatus [6]) was 1.8 cm2. For the same compound, the Activity (Schistocerca americana [7]) was 0.29 cm2, the Activity (Schistocerca americana [8]) was 0.4 cm2 and the Activity (Schistocerca americana [9]) was “inactive”. The Activity (Schistocerca americana [10]) was “inactive” and the Activity (Schistocerca americana [11]) was “Active”.
With `COc1cc(CNC(=O)CCCC/C=C/C(C)C)ccc1O` [CAPSAICIN] the Activity (Schistocerca americana [12]) was 1.08 cm2 and the Activity (Diaprepes abbreviatus [13]) was 1.02 cm2.
`C=C(C)[C@H]1Cc2c(ccc3c2O[C@@H]2COc4cc(OC)c(OC)cc4[C@@H]2C3=O)O1` [ROTENONE] was tested, and the Activity (Diaprepes abbreviatus [14]) was “inactive”, the Activity (Diaprepes abbreviatus [15]) was 2.42 cm2 and the Activity (Diaprepes abbreviatus [16]) was 0.24 cm2. The Activity (Schistocerca americana [17]) was 1.64 cm2, the Activity (Diaprepes abbreviatus [18]) was “inactive” and the Activity (Diaprepes abbreviatus [19]) was “inactive”.
`CC(C)[C@@]1(O)[C@@H](OC(=O)c2cc[nH]c2)[C@@]2(O)[C@]3(C)C[C@@]4(O)O[C@@]5([C@H](O)[C@@H](C)CC[C@]35O)[C@@]2(O)[C@@]41C` [RYANODINE] was tested, and the Activity (Diaprepes abbreviatus [20]) was 1.46 cm2, the Activity (Schistocerca americana [1]) was “inactive” and the Activity (Schistocerca americana [21]) was 2.35 cm2. For the same compound, the Activity (Diaprepes abbreviatus [22]) was 0.48 cm2, the Activity (Schistocerca americana [3]) was “inactive” and the Activity (Schistocerca americana [23]) was 0.76 cm2. The Activity (Schistocerca americana [9]) was “inactive”, the Activity (Diaprepes abbreviatus [24]) was “inactive” and the Activity (Diaprepes abbreviatus [25]) was “inactive”. The Activity (Diaprepes abbreviatus [26]) was “inactive”.

Source: ChEMBL document CHEMBL3046692, “Antifeedant effect of commercial chemicals and plant extracts against Schistocerca americana (Orthoptera: Acrididae) and Diaprepes abbreviatus (Coleoptera: Curculionidae)” (2011)
